What all share (experiment): Antibiotic susceptibility, broth microdilution
What all share (format): cell-based
A general note: In broth dilution the organism is exposed to a series of concentrations in liquid medium.

For assay [1], the system named is Enterococcus faecalis (VanA, BM4166). The note with it: growth observed at 20 h, unit assumed. The method, then: (§1) Antibiotic susceptibilities were determined using the Clinical and Laboratory Standards Institute broth microdilution method (63). Briefly, antibiotics were prepared as 2-fold dilutions in 96-well plates containing cation-adjusted Mueller-Hinton broth (S. aureus strains) or brain-heart infusion broth (Enterococcus strains). Stock solutions of antibiotics were made in dimethyl sulfoxide (DMSO). […]

In assay [2] the test system is Staphylococcus aureus (methicillin resistant, ATCC 43300). Conditions: MRSA; growth observed at 20 h; unit assumed. The method, then: as §1
Assay [3] has as its system Enterococcus faecalis (Van B, ATCC 51299). The note with it: growth observed at 20 h, unit assumed. The method, then: as §1
The subject of assay [4] is Staphylococcus aureus (ATCC 25923). The note with it: growth observed at 20 h; unit assumed. The method, then: as §1
Assay [5] relates to Enterococcus faecium (Van A, ATCC BAA-2317). The note with it: growth observed at 20 h; unit assumed. The method, then:
as §1

Molecules are shown by their SMILES. Converted amounts (≈) assume the structure as drawn.

Broadly, the MIC is the lowest concentration found to suppress growth. A lower MIC goes with greater potency.

Take `CN[C@@H](CC(C)C)C(=O)N[C@H]1C(=O)N[C@@H](CC(N)=O)C(=O)N[C@H]2CN[C@H]3C(=O)N[C@H](C(=O)N[C@@H](C(=O)O)c4cc(OC)cc(OC)c4-c4cc3ccc4OC)[C@H](O)c3ccc(c(Cl)c3)Oc3cc2cc(c3OC)Oc2ccc(cc2Cl)[C@H]1O` (atropisomer, axis not shown) [Compound 43]: the MIC in assay [1] is more than 64 µg/mL; in assay [2], 2 µg/mL (≈ 1.69 µM); in assay [3] it was 8 µg/mL (≈ 6.74 µM); in assay [4], 2 µg/mL (≈ 1.69 µM); in assay [5], more than 64 µg/mL.

Consider `CN[C@H](CC(C)C)C(=O)N[C@H]1C(=O)N[C@@H](CC(N)=O)C(=O)N[C@H]2C(=O)N[C@H]3C(=O)N[C@H](C(=O)N[C@H](C(=O)O)c4cc(O)cc(O)c4-c4cc3ccc4O)[C@H](O)c3ccc(c(Cl)c3)Oc3cc2cc(c3O)Oc2ccc(cc2Cl)[C@H]1O` [vancomycin aglycon], for which the MIC in assay [1] was more than 64 µg/mL; in assay [2], 1 µg/mL (≈ 0.874 µM); in assay [3], 32 µg/mL (≈ 28 µM); in assay [4], 1 µg/mL (≈ 0.874 µM); in assay [5], more than 64 µg/mL.

Consider `CN[C@H](CC(C)C)C(=O)N[C@H]1C(=O)N[C@@H](CC(N)=O)C(=O)N[C@H]2C(=O)N[C@H]3C(=O)N[C@H](C(=O)N[C@H](C(=O)O)c4cc(O)cc(O)c4-c4cc3ccc4O)[C@H](O)c3ccc(c(Cl)c3)Oc3cc2cc(c3O[C@@H]2O[C@H](CO)[C@@H](O)[C@H](O)[C@H]2O[C@H]2C[C@](C)(N)[C@H](O)[C@H](C)O2)Oc2ccc(cc2Cl)[C@H]1O` [vancomycin], for which the MIC in assay [1] is more than 64 µg/mL; in assay [2] it was 0.5 µg/mL (≈ 0.345 µM); in assay [3], 16 µg/mL (≈ 11 µM); in assay [4] it was 0.5 µg/mL (≈ 0.345 µM); in assay [5], more than 64 µg/mL.

Values taken from US12415819B2, “Cu- and Ni-catalyzed decarboxylative borylation reactions” (The Scripps Research Institute, priority 2017, dated 2025).
